Data taken from US8192962B2, “Processes for detecting toxic substances” (Daikin Industries, Ltd., priority 2001, dated 2012).

Tested on: Stress protein genes
Assay: DNA chip mRNA expression in yeast, stress protein genes (Table 6)
Type: cell-based, Saccharomyces cerevisiae S288C
Procedure: Yeast (Saccharomyces cerevisiae S288C (α SUC2mal mel gap2 CUP1)) were incubated at 25° C. on YPD medium (yeast extract 1%, polypepton 2%, glucose 2%). One of toxic chemical substances was added to the cells at logarithmic growth phase, and the cells were further incubated for two hours. Cells were cultured without any chemical substance in the same condition, and were used as control. Concentrations of the chemical substances were defined to inhibit the growth of the yeast but not lead to death.
After completion of the incubation, the culture was centrifuged to collect the cells. To the cells, sodium acetate buffer (50 mM sodium acetate, 10 mM EDTA, 1% SDS) was added, and the mixture was shaken at 65° C. for five minutes, followed by returning to room temperature, and obtaining the supernatant, of which the procedures were repeated two times. To the supernatant, ½ amount of a solution of phenol/chloroform was added, and the mixture was centrifuged to give a supernatant, which was added with an equal amount of chloroform, and the mixture was centrifuged to give a supernatant. To the supernatant, an equal amount of isopropanol containing 0.3 M sodium acetate was added, and the mixture was allowed to stand at room temperature for 30 minutes, after which the mixture was centrifuged to give a sediment of the whole RNAs. Seventy % ethanol was added to the sediment, and the mixture was again centrifuged to give a sediment, which was then dried and dissolved in water. mRNA was isolated from the whole RNAs as followings. In view of the fact that a poly A chain is attached to the 3′ terminus of mRNA, a polynucleotide having a poly T structure which was immobilized on the surface of latex beads was used to trap the mRNA, and then the mRNA was washed and eluted with spine column (Oligotex-dT30<Super>mRNA Purification Kit, Takara). Reverse transcription of the mRNA was conducted with a reverse transcriptase (Super Script II Reverse Transcriptase; catalogue No. 18064-014, GibcoBRL) using fluorescence-labeled nucleotides to give cDNAs that were introduced with Cy3-dUTP or Cy5-dUTP during the reverse transcription.
The labeled cDNAs were dissolved in TE buffer (10mM Tris-HCl/1 mM EDTA, pH8.0), and the solution was dropped on the DNA chip containing the whole genes of yeast (DNA Chip Research Inc. Japan) so that the cDNAs were hybridized on the DNA chip at 65° C. for over 12 hours. The fluoresces intensity of the DNA chip was read with a scanner, and the ratio relative to the fluorescence intensity resulting from the absence of chemical substance was estimated as the following, which is shown in Tables 1 to 9: […]

[Cl][Pb][Cl] [(4), PbCl2]
The level of expressed mRNA in the presence of chemical substance/The level of expressed mRNA in the absence of chemical substance (yeast gene YIL033C): 1.3 | The level of expressed mRNA in the presence of chemical substance/The level of expressed mRNA in the absence of chemical substance (yeast gene YIR037W): 2.3 | The level of expressed mRNA in the presence of chemical substance/The level of expressed mRNA in the absence of chemical substance (yeast gene YIR038C): 2.0 | The level of expressed mRNA in the presence of chemical substance/The level of expressed mRNA in the absence of chemical substance (yeast gene YJL128C): 0.8 | The level of expressed mRNA in the presence of chemical substance/The level of expressed mRNA in the absence of chemical substance (yeast gene YJL158C): 1.5 | The level of expressed mRNA in the presence of chemical substance/The level of expressed mRNA in the absence of chemical substance (yeast gene YJL159W): 1.1 | The level of expressed mRNA in the presence of chemical substance/The level of expressed mRNA in the absence of chemical substance (yeast gene YJL165C): 1.6 | The level of expressed mRNA in the presence of chemical substance/The level of expressed mRNA in the absence of chemical substance (yeast gene YJR090C): 0.8 | The level of expressed mRNA in the presence of chemical substance/The level of expressed mRNA in the absence of chemical substance (yeast gene YKL161C): 2.2 | The level of expressed mRNA in the presence of chemical substance/The level of expressed mRNA in the absence of chemical substance (yeast gene YKL163W): 1.9 | The level of expressed mRNA in the presence of chemical substance/The level of expressed mRNA in the absence of chemical substance (yeast gene YKL164C): 0.9 | The level of expressed mRNA in the presence of chemical substance/The level of expressed mRNA in the absence of chemical substance (yeast gene YKL210W): 0.7 | The level of expressed mRNA in the presence of chemical substance/The level of expressed mRNA in the absence of chemical substance (yeast gene YKR053C): 1.2 | The level of expressed mRNA in the presence of chemical substance/The level of expressed mRNA in the absence of chemical substance (yeast gene YLL024C): 0.8 | The level of expressed mRNA in the presence of chemical substance/The level of expressed mRNA in the absence of chemical substance (yeast gene YLL026W): 1.7 | The level of expressed mRNA in the presence of chemical substance/The level of expressed mRNA in the absence of chemical substance (yeast gene YLL039C): 1.2 | The level of expressed mRNA in the presence of chemical substance/The level of expressed mRNA in the absence of chemical substance (yeast gene YLL060C): 2.6 | The level of expressed mRNA in the presence of chemical substance/The level of expressed mRNA in the absence of chemical substance (yeast gene YLR006C): 6.2 | The level of expressed mRNA in the presence of chemical substance/The level of expressed mRNA in the absence of chemical substance (yeast gene YLR109W): 0.9 | The level of expressed mRNA in the presence of chemical substance/The level of expressed mRNA in the absence of chemical substance (yeast gene YLR259C): 1.6 | The level of expressed mRNA in the presence of chemical substance/The level of expressed mRNA in the absence of chemical substance (yeast gene YML007W): 1.3 | The level of expressed mRNA in the presence of chemical substance/The level of expressed mRNA in the absence of chemical substance (yeast gene YML070W): 1.9 | The level of expressed mRNA in the presence of chemical substance/The level of expressed mRNA in the absence of chemical substance (yeast gene YMR021C): 1.1 | The level of expressed mRNA in the presence of chemical substance/The level of expressed mRNA in the absence of chemical substance (yeast gene YMR173W): 0.9 | The level of expressed mRNA in the presence of chemical substance/The level of expressed mRNA in the absence of chemical substance (yeast gene YMR186W): 0.9 | The level of expressed mRNA in the presence of chemical substance/The level of expressed mRNA in the absence of chemical substance (yeast gene YNL064C): 1.1 | The level of expressed mRNA in the presence of chemical substance/The level of expressed mRNA in the absence of chemical substance (yeast gene YNL160W): 2.0 | The level of expressed mRNA in the presence of chemical substance/The level of expressed mRNA in the absence of chemical substance (yeast gene YNL241C): 1.0 | The level of expressed mRNA in the presence of chemical substance/The level of expressed mRNA in the absence of chemical substance (yeast gene YNR076W): 1.0 | The level of expressed mRNA in the presence of chemical substance/The level of expressed mRNA in the absence of chemical substance (yeast gene YOL064C): 0.6 | The level of expressed mRNA in the presence of chemical substance/The level of expressed mRNA in the absence of chemical substance (yeast gene YOL161C): 1.4 | The level of expressed mRNA in the presence of chemical substance/The level of expressed mRNA in the absence of chemical substance (yeast gene YOR008C): 1.1 | The level of expressed mRNA in the presence of chemical substance/The level of expressed mRNA in the absence of chemical substance (yeast gene YOR009W): 0.7 | The level of expressed mRNA in the presence of chemical substance/The level of expressed mRNA in the absence of chemical substance (yeast gene YOR010C): 0.6 | The level of expressed mRNA in the presence of chemical substance/The level of expressed mRNA in the absence of chemical substance (yeast gene YOR027W): 0.8 | The level of expressed mRNA in the presence of chemical substance/The level of expressed mRNA in the absence of chemical substance (yeast gene YOR208W): 2.9 | The level of expressed mRNA in the presence of chemical substance/The level of expressed mRNA in the absence of chemical substance (yeast gene YPL059W): 1.3 | The level of expressed mRNA in the presence of chemical substance/The level of expressed mRNA in the absence of chemical substance (yeast gene YPL106C): 1.1 | The level of expressed mRNA in the presence of chemical substance/The level of expressed mRNA in the absence of chemical substance (yeast gene YPL140C): 1.0 | The level of expressed mRNA in the presence of chemical substance/The level of expressed mRNA in the absence of chemical substance (yeast gene YPL194W): 1.1 | The level of expressed mRNA in the presence of chemical substance/The level of expressed mRNA in the absence of chemical substance (yeast gene YPL223C): 5.1 | The level of expressed mRNA in the presence of chemical substance/The level of expressed mRNA in the absence of chemical substance (yeast gene YPL240C): 0.9 | The level of expressed mRNA in the presence of chemical substance/The level of expressed mRNA in the absence of chemical substance (yeast gene YPR005C): 3.8 | The level of expressed mRNA in the presence of chemical substance/The level of expressed mRNA in the absence of chemical substance (yeast gene YPR026W): 1.3
